“Also recorded” adds a separate entry of the source. Where no end group is shown, it is not given here.
Experiments:
[1] = SSTN stability assay in mouse serum; assay type: in vitro ADME; settings: for stability in serum (in words): mouse (rodent) serum, up to 72 hr; for stability in serum (in words) / stability (activity retained): 37° C.; for stability (activity retained): mouse serum, 3 days (SSTNIGF1R: more than 3 days)
Procedure: FIG. 16. SSTNI/V IS STABLE IN RODENT SERUM, EQUIVALENT TO SSTNIGF1R AND SSTNVLA4. SSTNI/V, SSTNIGF1R and SSTNVLA4 were incubated at 37° C. for up to 72 hr in mouse serum. Note that rodent serum is known to contain substantial proteolytic activity against peptides. A GRGDSP integrin-inhibitory peptide was used as control, tested against endothelial cell adhesion to fibronectin. Either myeloma cell viability, or endothelial cell adhesion to IIICS fragment was used to test the activity of the SSTN peptides. SSTN peptides were used at up to 30 μM, and the GRGDSP peptide was used up to 1 mM. Activity observed in the assays was plotted against a standard curve to determine relative activity.
(§1) For stability assays, SSTNIGF1R, SSTNVLA4, SSTNI/V and GRGDSP peptide (SEQ ID NO:31; EMD Millipore) were incubated in human plasma (obtained from the UW-Madison Hospital Blood Bank) for 0, 8, 24 or 72 hr, then tested in the endothelial cell adhesion assay or cell viability assay and compared to a standard curve generated using fresh peptide.

[2] = tested on: CAG myeloma tumor xenografts; settings: nude mice, Alzet pumps 0.365 mg/kg/day, 4 weeks; modified from Beauvais et al. 2016; cited from earlier work
[3] = tested on: UM-SCC47, SCC25, MDA-MB-468, MDA-MB-231, MCF-7 and SKBr3 carcinoma cells; settings: 3, 10 or 30 μM, 3 days; Beauvais et al. 2016; cited from earlier work
[4] = SSTN stability assay in human plasma; assay type: in vitro ADME; settings: more than 3 days at 37° C.
Procedure: as §1

[5] = Beauvais et al., 2016; cited from earlier work
[6] = SSTN stability in bovine serum; assay type: in vitro ADME; settings: more than 3 days at 37° C.
[7] = Beauvais et al., 2016; plasma species not printed at the place; cited from earlier work
[8] = tested on: B78 murine melanoma cells; assay: Melanoma cell survival (trypan blue exclusion); assay type: cell-based, mouse; settings: up to 72 hr, 30 μM
Procedure: FIG. 18. SSTNI/V BLOCKS SURVIVAL OF MOUSE MELANOMA CELLS. B78 murine melanoma cells grown in serum-containing DMEM are incubated for up to 72 hr in 30 μM SSTNVLA4, SSTNIGF1R or SSTNI/V, then viable cells were quantified by trypan blue exclusion.
All cells were cultured at 37° C. and 92.5% air/7.5% CO2. The derivation and culture of CAG myeloma and HMEC-1 cells are described previously (Ades et al. 1992, Rapraeger et al. 2013). B78 murine melanoma cells were kindly provided by Dr. Sondel, Department of Pediatrics, University of Wisconsin-Madison. All cells are routinely screened for mycoplasma contamination. For viability studies, 2.5×10^4 myeloma cells/well or 10^4 B78 murine melanoma cells were plated in 96-well plates in complete DMEM containing 10% calf serum in the presence or absence of SSTN peptides for 24, 48 or 72 hrs. Numbers of viable cells were then determined by addition of CellTiter-GLO reagent to the culture medium as described by the manufacturer and viable cells determined by staining with 0.4% trypan blue and counting cells that exclude (viable) or take up (dead) the stain.

[9] = tested on: HaCaT keratinocytes and MCF10A breast epithelial cells; settings: 3, 10 or 30 μM, 3 days; Beauvais et al. 2016; cited from earlier work
[10] = tested on: Apoptosis signal regulating kinase-1 (ASK1); settings: CAG or MM.1R myeloma cells, 6 hr, 10 μM; modified from Beauvais et al. 2016; cited from earlier work
[11] = tested on: angiogenesis in the mouse cornea; settings: induced by FGF in the mouse cornea; Beauvais et al., 2009; cited from earlier work
[12] = tested on: M21 murine melanoma cells; assay: Melanoma cell invasion through filters coated with fibronectin; assay type: cell-based, mouse; settings: 16 hr, 30 μM peptide
Procedure: FIG. 17. […] M21 murine melanoma cells are allowed to migrate for 16 hr through filters coated with fibronectin. The relative roles of the αvβ3 integrin and the α4β1 integrin (VLA-4) are determined using blocking antibodies to αv and α4 integrin subunits, or both antibodies combined.

CAG myeloma cells = CAG myeloma cells plated on FN for 2.5 hr; 0, 0.3, 3, or 30 μM; modified from Jung et al. 2016; cited from earlier work
HMEC-1 cells = settings: 20 ng/ml VEGF, 30 μM, 24 h; modified from Jung et al. 2016; cited from earlier work
VEGFR2 = settings: 2 h on IIICS, 10 μM; modified from Jung et al. 2016; cited from earlier work
[13] = tested on: myeloma, melanoma, microvascular endothelial and T-lymphoma cells; assay: Migration through filters coated with VCAM-1; assay type: cell-based; settings: 16 hr, 30 μM
Procedure: (§2) FIGS. 11A, 11B, 11C, and 11D. […] 11A. CAG myeloma, mouse M21 melanoma, human microvascular endothelial and Jurkat T-lymphoma cells are plated on VCAM-1 for 2 hr in the presence or absence of 30 μM SSTNVLA4 or VLA-4 blocking antibody as a test of specificity. Numbers of adherent cells are quantified and expressed as a percentage of control, untreated cells in FIG. 11B. 11C. Cells are plated on top of filters coated with VCAM-1 allowed to migrate for 16 hr in the presence or absence of 30 μM SSTNVLA4. Cells accumulating on the bottom of the filters are visualized by staining. 11D. Expression level of Sdc1 and VLA-4 are shown by Western blot staining of mouse natural killer (NK) and T-cells harvested from mouse spleens.

[14] = tested on: CAG myeloma, mouse M21 melanoma, human microvascular endothelial and Jurkat T-lymphoma cells; assay: Cell adhesion to VCAM-1; assay type: cell-based; settings: 2 hr, 30 μM
Procedure: as §2

HMEC-1 = settings: 16 h, 30 μM; modified from Jung et al. 2016; cited from earlier work

For `N=C(N)NCCC[C@H](NC(=O)CN)C(=O)NCC(=O)N[C@@H](CC(=O)O)C(=O)N[C@@H](CO)C(=O)N1CCC[C@H]1C(=O)O` [GRGDSP], the “time to complete inactivation” value ([1]; control peptide, tested by endothelial cell adhesion to fibronectin) was at most 8 h and the “stability in serum (in words)” value [1] was “destroyed within a matter of a few hr”.

For “LPAGEGPKEGEAVVLPEVEPGLTAREQDFTFETSGENTA [SSTNI/V]”, the “stability in serum (in words)” value [1] was “highly stable; also recorded: same remarkable stability” and the “stability (activity retained)” value [1] was 100%.

In the case of “SSTNIGF1R: peptide mimetic of the Sdc1 docking site (aa93-120 in human Sdc1) that captures IGF-1R and the αvβ3 or αvβ5 integrin”, the “growth of myeloma tumors” value [2] is given as “INHIBITS GROWTH”, the “growth of carcinoma cells” value [3] is given as “BLOCKS THE GROWTH” and the “stability (activity retained)” value [4] is given as 100%. The half-life in vivo [5] was “ca. 27 hr”, the “stability (activity retained)” value [1] was 100% and the “stability (activity retained)” value [6] was 100%. The “stability when incubated in plasma” value [7] was “remarkable stability”, the melanoma cell survival [8] was “killed; also recorded: blocked” and the “growth of normal epithelial cells” value [9] was “not affected and NOT”. The ASK-1 activation [10] was “ACTIVATES”, the “abnormal angiogenesis in vivo” value [11] was “block abnormal angiogenesis” and the “block of melanoma cell invasion” value [12] was “partially block; also recorded: partial block”.

In the case of “SSTNVLA4: peptide mimetic of the VLA-4 binding site of Sdc1, comprised of amino acids 210-233 (or 210-221) (DFTFETSGENTAVVAVEPDRRNQS)”, the “VLA-4-mediated adhesion of myeloma cells” value (CAG myeloma cells) is listed as “displaced from VLA-4 ligands; also recorded: BLOCKS”, the tube formation (HMEC-1 cells) is listed as “prevents the angiogenic phenotype; also recorded: BLOCKS” and the VEGFR2 activation (VEGFR2) is listed as “BLOCKS”. For the same compound, the “stability (activity retained)” value [1] was 100%, the “invasion of cells through VCAM-1-coated filters” value [13] was “BLOCKS THE INVASION” and the “invasion of cells through VCAM-1-coated filters” value ([13]; listed as SSTNVLA-4) was “prevented”. For the same compound, the “binding of cells to the VLA-4 ligand VCAM-1” value [14] was “prevented”, the endothelial cell invasion (HMEC-1) was “BLOCKS” and the melanoma cell survival [8] was “only a minimal effect; also recorded: only minimally”. The “block of melanoma cell invasion” value [12] was “partially block; also recorded: partial block”.

— US9963498B2, “Peptides that inhibit syndecan-1 activation of VLA-4 and IGF-1R” (Wisconsin Alumni Research Foundation, priority 2016, dated 2018)
